The subject of the first series is HIV-1. Description: NCI in vitro anti-HIV drug screening test (protection of T4 lymphocytes from HIV cytolysis, XTT readout). The class given is cell-based. Conditions: T4 lymphocytes (CEM cell line) infected with HIV-1, 6 days, XTT formazan; numerical EC50/IC50/TI only in FIGS. 1-4. How it is done: The procedure used in the NCI's test for agents active against HIV is designed to detect agents acting at any stage of the virus reproductive cycle. The assay basically involves the killing of T4 lymphocytes by HIV. Small amounts of HIV are added to cells, and two cycles of virus reproduction are necessary to obtain the required cell killing. Agents that interact with virions, cells, or virus gene-products to interfere with vital activities will protect cells from cytolysis. All tests are done with at least one positive (e.g., AZT-treated) control done at the same time under identical conditions. The procedure is as follows:
Candidate agent was dissolved in dimethyl sulfoxide then diluted 1:100 in cell culture medium before preparing serial half-log10 dilutions. […]
Individual wells were analyzed spectrophotometrically to quantitate formazan production, and in addition were viewed microscopically for detection of viable cells and confirmation of protective activity. […]
The figures display a plot of the log10 of the sample's concentrations (as μg/mL or M) against the measured test values expressed as a percentage of the uninfected, untreated control values. […] The percent protection has been calculated from the data and is presented on the left side of the graph. […]
For `C[C@H]1Cn2c(nc3c(C4OCCO4)cccc32)-c2c(cccc2[N+](=O)[O-])O1`, the “activity against HIV” value was “confirmed active”.

Tested on in another series: not given
Experiment: not given
Details: not given
Regarding `Cc1ccc(S(=O)(=O)OCC2Cn3c(nc4ccccc43)-c3ccccc3O2)cc1` (centres unmarked), the melting point was 165.5 to 166.5 °C.

`OCC1Cn2c(nc3ccccc32)-c2ccccc2O1` (centres unmarked) displayed a melting point of 142 to 143.5 °C.

For the molecule `CC(C)(C)C1Cn2c(nc3c(C4OCCO4)cccc32)-c2ccccc2O1` (centres unmarked), the melting point is 200 to 201 °C.

Molecule `Cc1cccc2c1nc1n2CC(C(C)(C)C)Oc2c(Cl)cccc2-1` (centres unmarked) came in with a melting point of 191 to 192 °C.

`Cc1cccc2c1nc1n2CC(CO)Oc2c(Cl)cccc2-1` (centres unmarked) had a melting point of 186.5 to 188 °C.

`CC(C)(C)C1Cn2c(nc3ccccc32)-c2ccccc2O1` (centres unmarked): the melting point lay within 149 to 150 °C.

`Cc1ccc(S(=O)(=O)OCC2Cn3c(nc4c(C)cccc43)-c3cccc(Cl)c3O2)cc1` (centres unmarked): the melting point was in the range of 168 to 169 °C.

A word on the melting point: it is the temperature, or range, at which the solid turns liquid.
